The test system of the experiment is mTORC2 activity (phosphorylation of Akt at Ser473). The experiment in a line: Cellular selectivity mTORC1 over mTORC2 (p4EBP1 vs pAkt). In kind it is cell-based, human. An excerpt:
The in vitro profile of RMC-5552 was characterized using standard biochemical and cellular assays to determine the mode of interaction with mTORC1 and mTORC2. The effect of RMC-5552 on established cellular readouts for mTORC1 activity (including phosphorylation of P70S6K at Thr389 and 4EBP1 at Thr37/46), mTORC2 activity (including phosphorylation of Akt at Ser473), and cellular proliferation was monitored.
RMC-5552 binds to the intracellular protein FKBP12 and engages the FRB allosteric site and the ATP binding site on the mTORC1 complex, leading to inhibition of mTOR kinase activity.

Structures are written as SMILES.

On to `CO[C@H]1C[C@@H]2CC[C@@H](C)[C@@](O)(O2)C(=O)C(=O)N2CCCC[C@H]2C(=O)O[C@H]([C@H](C)C[C@@H]2CC[C@@H](OC(=O)NCCOCCOCCOCCOCCOCCOCCOCCOCCC(=O)NCCS(=O)(=O)c3ccc(C(=O)N4CCOc5ccc(-c6ccc(N)nc6)cc5C4)c(C)c3F)[C@H](OC)C2)C[C@@H](O)[C@H](C)/C=C(\C)[C@@H](O)[C@@H](OC)C(=O)[C@H](C)C[C@H](C)/C=C/C=C/C=C/1C` [RMC-6272], for which the “selective inhibition of mTORC1 over mTORC2” value was above 10 fold.
